According to PMC3866251, “The Sodium/Proline Transporter PutP of Helicobacter pylori” (PLoS ONE, 2013):

Molecular target: T1, HpPutP (Helicobacter pylori, UniProt B6JPE8)
T1 construct: gene putP; full-length, C-terminal 6His tag (FLAG-6His for Western blots), expressed in E. coli WG170 (PutP-A-), intact cells
Test: inhibition of […]-L-proline uptake into E. coli WG170 expressing HpPutP, Dixon plot
Assay type: cell-based

T1 sequence (B6JPE8 1-496): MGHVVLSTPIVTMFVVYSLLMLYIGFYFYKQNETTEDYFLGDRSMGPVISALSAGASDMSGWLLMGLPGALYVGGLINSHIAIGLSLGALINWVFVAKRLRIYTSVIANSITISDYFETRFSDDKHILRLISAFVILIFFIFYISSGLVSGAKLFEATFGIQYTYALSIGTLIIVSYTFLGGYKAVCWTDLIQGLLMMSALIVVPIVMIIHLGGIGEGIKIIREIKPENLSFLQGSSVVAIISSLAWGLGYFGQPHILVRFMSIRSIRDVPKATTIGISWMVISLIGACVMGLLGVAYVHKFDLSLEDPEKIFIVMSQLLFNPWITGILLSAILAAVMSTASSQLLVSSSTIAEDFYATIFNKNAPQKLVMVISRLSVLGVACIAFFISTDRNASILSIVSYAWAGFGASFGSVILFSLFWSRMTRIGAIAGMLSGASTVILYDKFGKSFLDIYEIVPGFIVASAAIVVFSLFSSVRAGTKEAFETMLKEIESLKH

SMILES	Ki [µM]
O=C(O)[C@@H]1CCN1 [AZC, L-azetidine-2-carboxylic acid]	44.2 ± 6.3
O=C(O)C1C=CCN1 (racemic) [DHP, 3,4-dehydro-D,L-proline]	5.7 ± 0.9
